Experimental data reported in article PMC12560828, “Chemical structure drives developmental toxicity of alkyl-substituted naphthalenes in zebrafish” (Environment international, 2025).

How the values were obtained:
[1] = tested on: zebrafish larvae, 120 hpf; assay: Larval photomotor response (LPR) assay after vial exposure; assay type: in vivo, Danio rerio; conditions: for fold_change: LPR; for LPR behavioral effect: 120 hpf, light/dark periods, result in words
Procedure: (§1) When embryos were 6 hpf they were bleached in groups of 1000 or less to limit bacterial growth in sealed vials. Embryos were placed in a strainer for transfer between solutions in 500 mL containers. […] Pools of eight embryos were placed into 2 mL clear glass screw cap exposure vials with polyvinyl-faced pulp liner (Avantar Radnor, PA, United States) using a glass Pasteur pipette. Excess EM was removed, and 2 mL of fresh EM was immediately added. A total of 10 uL of 200x working stock (in DMSO) was added to each vial, then immediately capped and inverted three times to mix. […] Vials were loaded into a custom 3D printed vial holder for slow end-over-end rotation in a dark 28 °C incubator overnight. […] At 24 hpf, embryos were removed from exposure vials and singulated into 96-well plates loaded with 100 μL chemical-free EM. Each exposure vial group was maintained in plate columns. After loading into 96-well plates, embryos were assessed for 24-hour mortality. For the remainder of the exposure, plates were kept stationary at 28 °C in the dark, until 120 hpf when morphology screening and the larval photo motor response (LPR) assay were conducted, section 2.3.2 and section 2.3.3, respectively.
Each treatment group was replicated over four vials, resulting in 32 embryos per treatment, split over two replicate 96-well plates per chemical. […] Vial groups of plated larvae were tracked to assess the impact of the vial on the results. All reported concentrations were nominal water concentrations and are included in SI-T4.
The LPR assay was conducted at 120 hpf. […] Larval movement was tracked throughout minutes 6–24. Animals dead or morphologically abnormal were excluded from the analysis, and if more than 30 % of the wells in a treatment group were excluded, the treatment was removed.
Movement values were binned into 6s intervals, log normalized and used to calculate area under the curve (AUC). AUC values from the first cycle after calibration were used to calculate the LEL for each period (light and dark).

[2] = tested on: early life stage zebrafish (Danio rerio) embryos; assay: Developmental toxicity morphology screen, sealed rotating vial exposure; assay type: in vivo; design: bmd, MO24 / bmd, MORT / bmd, ANY_ / bmd, AXIS / bmd, CRAN / bmd, EDEM / bmd, LTRK / bmd, MUSC / bmdL, ANY_ / bmdU, ANY_ / bmdL, AXIS / bmdU, AXIS / bmdL, CRAN / bmdU, CRAN / bmdL, EDEM / bmdU, EDEM / bmdL, LTRK / bmdU, LTRK / bmdL, MO24 / bmdU, MO24 / bmdL, MORT / bmdU, MORT: unit not given here; conditions: for BMC50 AXIS (curved or bent body axis at 120 hpf) / BMC50 CRAN (craniofacial malformation at 120 hpf) / BMC50 EDEM (pericardial and/or yolk sac edema at 120 hpf) / BMC50 LTRK (lower trunk and/or caudal fin at 120 hpf) / BMC50 MO24 (mortality at 24 hpf) / BMC50 MORT (mortality at 120 hpf): Fig. 2; for BMC50 AXIS (curved or bent body axis at 120 hpf) / BMC50 CRAN (craniofacial malformation at 120 hpf) / BMC50 EDEM (pericardial and/or yolk sac edema at 120 hpf) / BMC50 LTRK (lower trunk and/or caudal fin at 120 hpf) / BMC50 MO24 (mortality at 24 hpf) / BMC50 MORT (mortality at 120 hpf) / BMC50 Any effect: nominal concentration; for BMC50 Any effect: Fig. 2 heatmap, exposure 6-24 hpf in vials, summary of all endpoints; for any effect BMD50: SI-T5; for bmd, MO24 / bmd, MORT / bmd, ANY_ / bmd, AXIS / bmd, CRAN / bmd, EDEM / bmd, LTRK: benchmark dose; for bmd, MO24: endpoint MO24; for bmd, MORT: endpoint MORT; for bmd, ANY_: morphology endpoint ANY_ (any effect); for bmd, AXIS: morphology endpoint AXIS; for bmd, CRAN: morphology endpoint CRAN; for bmd, EDEM: morphology endpoint EDEM; for bmd, LTRK: morphology endpoint LTRK
Procedure: as §1
Each treatment group was replicated over four vials, resulting in 32 embryos per treatment, split over two replicate 96-well plates per chemical. […] All reported concentrations were nominal water concentrations and are included in SI-T4.
At 24 hpf embryos were assessed for mortality (MO24). At 120 hpf embryos were assessed for abnormality in […] morphological endpoints: mortality (MORT), edemas (EDEM), bent axis (AXIS), touch response (TCHR), craniofacial (CRAN), muscular/cardiovascular (MUSC), lower trunk (LRTK), brain (BRAN), skin (SKIN), and notochord malformations (NC). Morphological assessments were made by a team of three to four individuals. The team was blinded to the identity, plate layout, and concentrations of the chemicals, thereby minimizing bias in morphological screening assessment. To ensure the assessments were consistent, concentration–response reproducibility of a parathion ethyl quality control plate was performed along with each experimental exposure set up. Details of all measured endpoints can be found at Developmental toxicity zebrafish phenotype atlas. […] Each endpoint was scored as a binary presence/absence and scores were compiled into an “Any effect” endpoint, the presence of abnormality in any individual endpoint.
The Any effect percent was used to calculate the BMC50, 50 % change relative to the background for each endpoint and chemical. All values were reported as the nominal exposure concentration.

[3] = period dark, round 1, conc 3.125
[4] = period dark, round 1, conc 6.25
[5] = period dark, round 1, conc 12.5
[6] = period light, round 1, conc 3.125
[7] = period light, round 1, conc 6.25
[8] = period light, round 1, conc 12.5
[9] = period dark, round 2, conc 37.5
[10] = period light, round 2, conc 37.5

SMILES	fold_change [1, 3]	fold_change [1, 4]	fold_change [1, 5]	fold_change ([1]; period dark, round 1, conc 25)	fold_change [1, 6]	fold_change [1, 7]	fold_change [1, 8]	fold_change ([1]; period light, round 1, conc 25)	BMC50 AXIS (curved or bent body axis at 120 hpf) [2] [µM]	BMC50 CRAN (craniofacial malformation at 120 hpf) [2] [µM]	BMC50 MO24 (mortality at 24 hpf) [2] [µM]	BMC50 MORT (mortality at 120 hpf) [2] [µM]	BMC50 Any effect [2] [µM]	any effect BMD50 [2] [µM]	bmd, MO24 [2]	bmd, MORT [2]	bmd, ANY_ [2]	bmd, AXIS [2]	bmd, CRAN [2]	other results
Cc1ccc2c(C)c(C)ccc2c1C [1,2,5,6-tetramethylnaphthalene]	-0.03133	-0.4187	-0.4196	-0.1628	0.2549	-0.3197	0.8672	-0.1531	–	–	–	–	–	–	–	–	–	–	–	fold_change ([1]; period dark, round 1, conc 50): -0.3813; fold_change ([1]; period light, round 1, conc 50): 0.1565
Cc1ccc2ccccc2c1C [1,2-dimethylnaphthalene]	–	–	–	–	–	–	–	–	–	–	–	–	–	–	–	–	–	–	–	LPR behavioral effect [1]: active
Cc1cc2c(C)ccc(C)c2cc1C [1,4,6,7-tetramethylnaphthalene]	0.4047	-0.3364	-0.3332	–	-0.4049	0.02072	-0.2213	–	21.1	23.9	35.4	29.4	20.5	20.47	35.4057	29.3744	20.4728	21.1106	23.8517	BMC50 EDEM (pericardial and/or yolk sac edema at 120 hpf) [2]: 22.5 µM; BMC50 LTRK (lower trunk and/or caudal fin at 120 hpf) [2]: 22.6 µM; bmd, EDEM [2]: 22.5215; bmd, LTRK [2]: 22.6067
Cc1ccc(C)c2ccccc12 [1,4-dimethylnaphthalene]	0.2846	-0.05841	-0.1506	-0.2067	0.303	-0.4509	1.1	0.6023	–	–	30.4	28.3	24.9	24.93	30.4433	28.3398	24.9263	–	–	–
Cc1cc2cccc(C)c2cc1C [1,6,7-trimethylnaphthalene]	-0.2752	-0.07056	-0.09309	–	-0.921	-0.5316	-0.2101	–	32.1	28.2	38.9	31.5	21.4	21.39	38.9242	31.4823	21.386	32.075	28.1944	BMC50 EDEM (pericardial and/or yolk sac edema at 120 hpf) [2]: 34.7 µM; BMC50 LTRK (lower trunk and/or caudal fin at 120 hpf) [2]: 32.9 µM; bmd, EDEM [2]: 34.7005; bmd, LTRK [2]: 32.865; fold_change ([1]; period dark, round 2, conc 12.8): -0.1665; fold_change ([1]; period dark, round 2, conc 16): -0.296; fold_change ([1]; period dark, round 2, conc 20): -0.09002; fold_change ([1]; period light, round 2, conc 12.8): 0.6308; fold_change ([1]; period light, round 2, conc 16): -0.8625; fold_change ([1]; period light, round 2, conc 20): 0.7418
Cc1ccc2c(C)cccc2c1 [1,6-dimethylnaphthalene]	–	–	–	–	–	–	–	–	46.6	42.5	46.6	43.4	34.6	34.56	46.5621	43.4183	34.5645	46.5655	42.4789	BMC50 EDEM (pericardial and/or yolk sac edema at 120 hpf) [2]: 46 µM; bmd, EDEM [2]: 45.9847
Cc1cccc2cccc(C)c12 [1,8-dimethylnaphthalene]	-0.1333	0.3857	-0.2522	-0.4588	0.4922	0.5326	-0.3791	0.4908	–	–	49.8	48.7	41.2	41.15	49.8371	48.678	41.1508	–	–	fold_change ([1]; period dark, round 2, conc 30): -0.4155; fold_change [1, 9]: -0.7493; fold_change ([1]; period dark, round 2, conc 45): -0.6849; fold_change ([1]; period light, round 2, conc 30): -0.235; fold_change [1, 10]: -0.3043; fold_change ([1]; period light, round 2, conc 45): 1.248
CCc1cccc2ccccc12 [1-ethylnaphthalene]	0.05526	0.06428	-0.02558	-0.1629	-0.3674	-0.401	-0.744	0.4136	43.9	46.3	44.6	41.9	33.7	33.7	44.6047	41.9285	33.6977	43.8887	46.3281	fold_change ([1]; period dark, round 2, conc 30): -0.2464; fold_change [1, 9]: -0.2326; fold_change ([1]; period light, round 2, conc 30): 0.3971; fold_change [1, 10]: -0.206
Cc1cccc2ccccc12 [1-methylnaphthalene]	-0.2838	-0.4018	-0.5302	-0.8382	0.7433	0.645	0.113	0.4697	–	–	–	–	–	–	–	–	–	–	–	morphological effects (BMC50 for any morphological endpoint) ([2]; 0-50 μM, result in words): no morphological BMC50 values; LPR behavioral effect [1]: active; fold_change ([1]; period dark, round 1, conc 50): -0.8713; fold_change ([1]; period light, round 1, conc 50): 0.667
Cc1cc2ccccc2cc1C [2,3-dimethylnaphthalene]	-0.07813	-0.1051	-0.1104	-0.9852	-0.3145	-0.003485	-1.16	-0.6826	–	–	–	–	46.6	46.56	–	–	46.5587	–	–	fold_change ([1]; period dark, round 1, conc 50): -1.366; fold_change ([1]; period light, round 1, conc 50): -0.533
CCc1ccc2cc(CC)ccc2c1 [2,6-diethylnaphthalene]	0.178	-0.04909	-0.5724	-0.5473	-0.07519	0.5876	0.2476	0.1223	46.9	–	38.1	39.2	18.8	18.77	38.0576	39.1942	18.7673	46.8649	–	–
